Target: T1, Prostaglandin G/H synthase 2 (Mus musculus, UniProt Q05769)
T1 sequence (Q05769 whole entry): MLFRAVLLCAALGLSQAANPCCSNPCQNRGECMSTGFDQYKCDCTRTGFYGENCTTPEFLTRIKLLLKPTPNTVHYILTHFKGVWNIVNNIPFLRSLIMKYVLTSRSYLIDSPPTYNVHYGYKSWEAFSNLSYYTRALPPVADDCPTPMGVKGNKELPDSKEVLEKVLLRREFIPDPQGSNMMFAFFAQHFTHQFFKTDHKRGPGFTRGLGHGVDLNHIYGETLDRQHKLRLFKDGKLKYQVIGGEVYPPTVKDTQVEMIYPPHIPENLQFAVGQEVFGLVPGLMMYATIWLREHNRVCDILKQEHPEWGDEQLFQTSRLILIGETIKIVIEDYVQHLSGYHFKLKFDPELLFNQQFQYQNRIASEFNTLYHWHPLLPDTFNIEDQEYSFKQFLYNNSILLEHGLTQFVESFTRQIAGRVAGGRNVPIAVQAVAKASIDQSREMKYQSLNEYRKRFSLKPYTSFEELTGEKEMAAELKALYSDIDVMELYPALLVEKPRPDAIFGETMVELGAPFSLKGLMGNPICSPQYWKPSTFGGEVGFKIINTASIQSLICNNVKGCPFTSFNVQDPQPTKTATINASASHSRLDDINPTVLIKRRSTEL
Test: Inhibition of LPS-induced COX2 activity in C57BL/6J mouse peritoneal macrophages by RIA

| IC50 [nM] | Structure (SMILES) |
| --- | --- |
| 2660 | COc1ccc(/C=C/C(=O)O[C@@H]2[C@@H](O)[C@H](O[C@@H]3[C@@H](O)[C@H](O[C@@H]4CO[C@@H](O[C@@H]5[C@@H](O)[C@H](C)O[C@@H](O[C@H]6[C@H](O[C@H]7CC[C@]8(C)[C@H]9CC=C%10[C@@H]%11CC(C)(C)CC[C@]%11(C(=O)O[C@@H]%11O[C@H](CO[C@@H]%12O[C@H](CO)[C@@H](O[C@@H]%13O[C@@H](C)[C@H](O)[C@@H](O)[C@H]%13O)[C@H](O)[C@H]%12O)[C@@H](O)[C@H](O)[C@H]%11O)CC[C@@]%10(C)[C@]9(C)CC[C@H]8C7(C)C)OC[C@H](O)[C@@H]6O)[C@@H]5O)[C@H](O)[C@@H]4O)O[C@H](CO)[C@H]3O)O[C@H](CO[C@@H]3O[C@@H](C)[C@H](O)[C@@H](O)[C@H]3O)[C@H]2O)cc1O [CLEMATOMANDSHURICA SAPONIN A] |
| 2580 | COc1cc(/C=C/C(=O)O[C@H]2[C@H](O[C@@H]3[C@@H](O)[C@H](O[C@@H]4CO[C@@H](O[C@@H]5[C@@H](O)[C@H](C)O[C@@H](O[C@H]6[C@H](O[C@H]7CC[C@]8(C)[C@H]9CC=C%10[C@@H]%11CC(C)(C)CC[C@]%11(C(=O)O[C@@H]%11O[C@H](CO[C@@H]%12O[C@H](CO)[C@@H](O[C@@H]%13O[C@@H](C)[C@H](O)[C@@H](O)[C@H]%13O)[C@H](O)[C@H]%12O)[C@@H](O)[C@H](O)[C@H]%11O)CC[C@@]%10(C)[C@]9(C)CC[C@H]8C7(C)C)OC[C@H](O)[C@@H]6O)[C@@H]5O)[C@H](O)[C@@H]4O)O[C@H](CO)[C@H]3O)O[C@H](CO[C@@H]3O[C@@H](C)[C@H](O)[C@@H](O)[C@H]3O)[C@@H](O)[C@@H]2O)ccc1O [CLEMATOMANDSHURICA SAPONIN B] |
